Assay results reported in article PMC6317804, “The integration of pharmacophore-based 3D QSAR modeling and virtual screening in safety profiling: A case study to identify antagonistic activities against adenosine receptor, A2A, using 1,897 known drugs” (PLoS ONE, 2019).
Values joined by “and” are separate entries in the source; they are usually repeats but may differ in a detail not shown here. Equal values may be shown once.

How the values were obtained:
[1] = target: T1, adenosine receptor 2A (A2A) (Homo sapiens, UniProt P29274); assay: Competition binding assay using radioactive ligands (CEREP); set-up: inhibition: dose or concentration left out as unconfirmed; conditions: for inhibition: read-out: %inhibition, binding; for inhibition at 10 µM: fixed compound concentration of 10 μM;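 as to all read-outs here: compounds screened at a single fixed 10 µM concentration for displacement of a radioligand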
T1 construct: CEREP (Poitiers, France), paid service
Procedure: (§1) Competition binding assay using radioactive ligands and functional assay monitoring cAMP were carried out as a paid service provided by CEREP (Poitiers, France). The functional assays monitoring Ca^2+ flux were carried out as a paid service provided by DiscoveRx (Carlsbad, CA).

[2] = target: T1, adenosine receptor 2A (A2A); assay: Functional antagonist assay monitoring cAMP (CEREP); format: cell-based;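 as to IC50, cAMP, M: eight-point concentration-response from 0 to 10 µM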
Procedure: as §1

[3] = target: T1, adenosine receptor 2A (A2A); assay: Functional assay monitoring Ca2+ flux (DiscoveRx); format: cell-based; set-up: inhibition: dose or concentration left out as unconfirmed; conditions: for inhibition: read-out: IC50, Ca2+, M
Procedure: as §1

[4] = test system: A2A; conditions: cited from earlier work
[5] = concentration-response up to 10 μM, read-out: IC50, cAMP
[6] = concentration-response up to 10 μM, read-out: IC50, Ca2+
[7] = concentration-response up to 10 μM

T1 sequence (P29274 whole entry): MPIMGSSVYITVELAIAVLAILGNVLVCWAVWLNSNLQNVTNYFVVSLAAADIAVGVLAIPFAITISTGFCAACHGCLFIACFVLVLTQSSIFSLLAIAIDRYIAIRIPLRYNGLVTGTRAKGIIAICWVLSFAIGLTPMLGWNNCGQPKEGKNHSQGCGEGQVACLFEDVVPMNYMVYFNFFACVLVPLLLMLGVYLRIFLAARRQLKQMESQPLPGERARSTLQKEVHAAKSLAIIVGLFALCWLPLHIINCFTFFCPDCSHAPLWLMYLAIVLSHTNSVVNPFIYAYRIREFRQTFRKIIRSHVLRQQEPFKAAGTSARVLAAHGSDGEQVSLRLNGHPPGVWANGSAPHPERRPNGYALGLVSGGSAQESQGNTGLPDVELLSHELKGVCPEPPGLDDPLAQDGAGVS

| SMILES | inhibition [3] | inhibition at 10 µM [1] | inhibition at up to 10 µM [2, 5] | further results |
| --- | --- | --- | --- | --- |
| N=C(N)NC(=O)c1nc(Cl)c(N)nc1N [Amiloride] | < 50% |  |  | inhibition [1]: 53%; inhibition ([2]; read-out: IC50, cAMP, M): < 50% |
| Cc1cc2c(OCC(CNC(C)(C)C)OC(=O)c3ccccc3)cccc2[nH]1 (stereo not drawn) [Bopindolol] | < 50% | < 50% | < 50% |  |
| CC(C)C[C@H](NC(=O)[C@H](Cc1ccccc1)NC(=O)c1cnccn1)B(O)O [Bortezomib] | < 50% | < 50% | < 50% |  |
| COc1ccccc1Oc1c(NS(=O)(=O)c2ccc(C(C)(C)C)cc2)nc(-c2ncccn2)nc1OCCO [Bosentan] |  | < 50% |  | inhibition at 10 µM [2, 5]: < 50%; inhibition at 10 µM [3, 6]: < 50% |
| C=CCN1C[C@H](C(=O)N(CCCN(C)C)C(=O)NCC)C[C@@H]2c3cccc4[nH]cc(c34)C[C@H]21 [Cabergoline] | < 50% | < 50% | < 50% |  |
| CCCCCOC(=O)Nc1nc(=O)n([C@@H]2O[C@H](C)[C@@H](O)[C@H]2O)cc1F [Capecitabine] | < 50% | < 50% | < 50% |  |
| CC1=C(C(=O)O)N2C(=O)[C@@H](NC(=O)[C@H](N)c3ccc(O)cc3)[C@H]2SC1 [Cefadroxil] |  | < 50% | < 50% | inhibition at up to 10 µM [3, 6]: < 50% |
| C=CC1=C(C(=O)O)N2C(=O)[C@@H](NC(=O)/C(=N\O)c3csc(N)n3)[C@H]2SC1 [Cefdinir] | < 50% | < 50% | < 50% |  |
| C=CC1=C(C(=O)O)N2C(=O)[C@@H](NC(=O)/C(=N\OCC(=O)O)c3csc(N)n3)[C@H]2SC1 [Cefixime] | < 50% | < 50% | < 50% |  |
| CO[C@@]1(NC(=O)Cc2cccs2)C(=O)N2C(C(=O)O)=C(COC(N)=O)CS[C@@H]21 [Cefoxitin] | < 50% | < 50% | < 50% |  |
| CC1=C(C(=O)O)N2C(=O)[C@@H](NC(=O)[C@H](N)c3ccccc3)[C@H]2SC1 [Cephalexin] | < 50% | < 50% | < 50% |  |
| C#C[C@]1(O)CC[C@H]2[C@@H]3CCC4=CCCC[C@@H]4[C@H]3C(=C)C[C@@]21CC [Desogestrel] | < 50% | < 50% | < 50% |  |
| COc1ccc([C@@H]2Sc3ccccc3N(CCN(C)C)C(=O)[C@@H]2OC(C)=O)cc1 [Diltiazem] | < 50% | < 50% | < 50% |  |
| COc1cccc2c1C(=O)c1c(O)c3c(c(O)c1C2=O)C[C@@](O)(C(=O)CO)C[C@@H]3O[C@H]1C[C@H](N)[C@H](O)[C@H](C)O1 [Doxorubicin] |  | < 50% | < 50% | IC50 [3, 7]: 2.5 µM |
| C[C@@H](O)[C@H]1C(=O)N2C(C(=O)O)=C(S[C@@H]3CN[C@H](C(=O)Nc4cccc(C(=O)O)c4)C3)[C@H](C)[C@H]12 [Ertapenem] | < 50% | < 50% | < 50% |  |
| Cc1cc(C#N)cc(C)c1Oc1nc(Nc2ccc(C#N)cc2)nc(N)c1Br [Etravirine] |  | < 50% | < 50% | inhibition at up to 10 µM [3, 6]: < 50% |
| O=C(/C=C/c1c(-c2ccccc2)nn2ccccc12)N1CCCC[C@@H]1CCO [FK453] |  |  |  | IC50 [4]: 1.58 µM |
| NC(N)=Nc1nc(CSCCC(N)=NS(N)(=O)=O)cs1 [Famotidine] | < 50% | < 50% |  | inhibition [2, 5]: < 50% |
| NC(=O)OCC(COC(N)=O)c1ccccc1 [Felbamate] | < 50% | < 50% | < 50% |  |
| Cc1onc(-c2c(F)cccc2Cl)c1C(=O)N[C@@H]1C(=O)N2[C@@H]1SC(C)(C)[C@@H]2C(=O)O [Flucloxacillin] | < 50% | < 50% | < 50% |  |
| NCC1(CC(=O)O)CCCCC1 [Gabapentin] | < 50% |  |  | inhibition [1]: < 50%; inhibition ([2]; read-out: IC50, cAMP, M): < 50% |
| CCC1=C(C)CN(C(=O)NCCc2ccc(S(=O)(=O)NC(=O)N[C@H]3CC[C@H](C)CC3)cc2)C1=O [Glimepiride] |  | < 50% | < 50% | inhibition at up to 10 µM [3, 6]: < 50% |
| COc1ccc2c(c1)C(=O)N(CCc1ccc(S(=O)(=O)NC(=O)NC3CCCCC3)cc1)C(=O)C2(C)C [Gliquidone] | < 50% | < 50% | < 50% |  |
| CC(C)[N+]1(C)[C@@H]2CC[C@H]1C[C@@H](OC(=O)C(CO)c1ccccc1)C2 (stereo partly drawn) [Ipratropium bromide] |  | < 50% |  | IC50, cAMP, M [2, 7]: N.E. (N.E., no effects. Results showing an inhibition or stimulation lower than 50% are considered to represent insignificant effects of the test compounds.); IC50, Ca2+, M [3, 7]: N.E. (N.E., no effects. Results showing an inhibition or stimulation lower than 50% are considered to represent insignificant effects of the test compounds.) |
| COC(=O)C1=C(C)NC(C)=C(C(=O)OC(C)C)C1c1cccc2nonc12 (stereo not drawn) [Isradipine] | < 50% | < 50% | < 50% |  |
| c1ccc(-c2cc(-c3ccccc3)c3nc(C4CCCCC4)[nH]c3n2)cc1 [LUF5981] |  |  |  | IC50 [4]: 0.2 µM |

| SMILES | inhibition [3] | inhibition at 10 µM [1] | inhibition at up to 10 µM [2, 5] | further results |
| --- | --- | --- | --- | --- |
| Nc1nnc(-c2cccc(Cl)c2Cl)c(N)n1 [Lamotrigine] | < 50% | < 50% | < 50% |  |
| CCOC(=O)C1=C(C)NC(c2ccccc2)=C(C(=O)OCc2ccccc2)C1C#Cc1ccccc1 (stereo not drawn) [MRS1191] |  |  |  | IC50 [4]: ~10 µM and 10 µM |
| Nc1ccc(O)c(C(=O)O)c1 [Mesalazine] |  | < 50% | < 50% | inhibition at up to 10 µM [3, 6]: < 50% |
| COCCc1ccc(OCC(O)CNC(C)C)cc1 (stereo not drawn) [Metoprolol] | < 50% | < 50% | < 50% |  |
| COc1ccc(OC)c(C(O)CNC(=O)CN)c1 (stereo not drawn) [Midodrine] | < 50% | < 50% | < 50% |  |
| Cc1[nH]c(=O)c(C#N)cc1-c1ccncc1 [Milrinone] | < 50% | < 50% | < 50% |  |
| OC(CNCC(O)C1CCc2cc(F)ccc2O1)C1CCc2cc(F)ccc2O1 (stereo not drawn) [Nebivolol] | < 50% | < 50% | < 50% |  |
| Cc1c(O)cccc1C(=O)N[C@@H](CSc1ccccc1)[C@H](O)CN1C[C@H]2CCCC[C@H]2C[C@H]1C(=O)NC(C)(C)C [Nelfinavir] |  | < 50% | < 50% | inhibition at up to 10 µM [3, 6]: < 50% |
| O=C1CCCC(=O)C1C(=O)c1ccc(C(F)(F)F)cc1[N+](=O)[O-] [Nitisinone] |  | < 50% | < 50% | inhibition at up to 10 µM [3, 6]: < 50% |
| NC[C@H](O)c1ccc(O)c(O)c1 [Norepinephrine] | < 50% | < 50% | < 50% |  |
| CN(C)CCC(c1ccccc1)c1ccccn1 (stereo not drawn) [Pheniramine] |  | < 50% | < 50% | inhibition at up to 10 µM [3, 6]: < 50% |
| Cc1ccc2c(c1)c1c3n2CCNC3CCC1 (stereo not drawn) [Pirlindole] |  | < 50% | < 50% | inhibition at up to 10 µM [3, 6]: < 50% |
| O=C(Nc1cccc2c(=O)cc(-c3nnn[nH]3)oc12)c1ccc(OCCCCc2ccccc2)cc1 [Pranlukast] |  | < 50% | < 50% | IC50 [3, 7]: 0.83 µM |
| CCCNCC(O)COc1ccccc1C(=O)CCc1ccccc1 (stereo not drawn) [Propafenone] | < 50% | < 50% | < 50% |  |
| Cc1ncc(CO)c(C=O)c1O [Pyridoxal] | < 50% | < 50% | < 50% |  |
| NC(=O)c1ncn([C@@H]2O[C@H](CO)[C@@H](O)[C@H]2O)n1 [Ribavirin] | < 50% | < 50% | < 50% |  |
| CN(CCOc1ccc(CC2SC(=O)NC2=O)cc1)c1ccccn1 (stereo not drawn) [Rosiglitazone] | < 50% | < 50% | < 50% |  |
| C[S+](CC[C@H](N)C(=O)[O-])C[C@H]1O[C@@H](n2cnc3c(N)ncnc32)[C@H](O)[C@@H]1O (stereo partly drawn) [S-Adenosyl-methionine] |  | 74% | < 50% | inhibition at up to 10 µM [3, 6]: < 50% |
| O=C(Oc1ccccc1C(=O)O)c1ccccc1O [Salsalate] | < 50% | < 50% | < 50% |  |
| CC(C)OC(=O)[C@H](C)N[P@](=O)(OC[C@H]1O[C@@H](n2ccc(=O)[nH]c2=O)[C@](C)(F)[C@@H]1O)Oc1ccccc1 [Sofosbuvir] | < 50% | < 50% |  | inhibition ([2]; read-out: IC50, cAMP, M): < 50% |
| CCN1CCCC1CNC(=O)c1cc(S(N)(=O)=O)ccc1OC (stereo not drawn) [Sulpiride] | < 50% | < 50% | < 50% |  |
| CCCSc1nc(N[C@@H]2C[C@H]2c2ccc(F)c(F)c2)c2nnn([C@@H]3C[C@H](OCCO)[C@@H](O)[C@H]3O)c2n1 [Ticagrelor] |  | < 50% | < 50% | inhibition at up to 10 µM [3, 6]: < 50% |
| Nc1nc(N)c2nc(-c3ccccc3)c(N)nc2n1 [Triamterene] | < 50% | < 50% | < 50% |  |
| CC(C)[C@H](N)C(=O)OCCOCn1cnc2c(=O)[nH]c(N)nc21 [Valaciclovir] | < 50% | < 50% | < 50% |  |
| CC(C)[C@H](N)C(=O)OCC(CO)OCn1cnc2c(=O)nc(N)[nH]c21 (stereo partly drawn) [Valganciclovir] | < 50% | < 50% | < 50% |  |
